The record followed here is patent US20070128217A1 (priority 2003, published 2007).

For assay [1], the system named is rabbit serum obtained by immunizing a rabbit with the SARS-CoV strain Frankfurt 1. In kind it is binding. Further details: Binding of a rabbit serum to linear peptides / Binding of a rabbit serum to looped peptides / Rabbit serum linear peptides / Rabbit serum looped peptides / Binding of a rabbit serum to linear peptides of protein N of SARS-CoV Urbani (Rabbit serum linear peptides) / Binding of a rabbit serum to looped/cyclic peptides of protein N of SARS-CoV Urbani (Rabbit serum looped peptides): unit not given here.

The test system of assay [2] is antibodies in sera from SARS patients (sera 1a, 1b, 2, 6, 37, 62, London, SARS-yellow, SARS-green). In kind it is binding, human. The arrangement: Binding of serum 6 to linear peptides of protein X1 of SARS-CoV Urbani / Binding of serum 37 to linear peptides of protein X1 of SARS-CoV Urbani / Binding of serum 6 to looped/cyclic peptide (PEPSCAN-ELISA) / Binding of serum 37 to looped/cyclic peptide (PEPSCAN-ELISA) / Binding of serum 37 to looped/cyclic peptides of protein X1 of SARS-CoV Urbani / Binding of serum 6 to linear peptides of protein X2 / Binding of serum 37 to linear peptides of protein X2 / Binding of serum 37 to looped/cyclic peptides of protein X2 of SARS-CoV Urbani / Binding of serum 6 to linear peptides of protein M of SARS-CoV Urbani / Binding of serum 37 to linear peptides of protein M of SARS-CoV Urbani / Binding of serum 6 to looped/cyclic peptides of protein M of SARS-CoV Urbani / Binding of serum 37 to looped/cyclic peptides of protein M of SARS-CoV Urbani / Binding of serum 6 to linear peptides of protein X3 of SARS-CoV Urbani / Binding of serum 37 to linear peptides of protein X3 of SARS-CoV Urbani / Binding of serum 37 to looped/cyclic peptides of protein X3 of SARS-CoV Urbani / Binding of serum 6 to linear peptides of protein X4 of SARS-CoV Urbani / Binding of serum 37 to linear peptides of protein X4 of SARS-CoV Urbani / Binding of serum 37 to looped/cyclic peptides of protein X4 of SARS-CoV Urbani / Binding of serum 6 to linear peptides of protein X5 of SARS-CoV Urbani / Binding of serum 37 to linear peptides of protein X5 of SARS-CoV Urbani / Binding of serum 37 to looped/cyclic peptides of protein X5 of SARS-CoV Urbani / Binding of serum 6 to linear peptides of protein N of SARS-CoV Urbani / Binding of serum 37 to linear peptides of protein N of SARS-CoV Urbani / Binding of serum 6 to linear peptide (PEPSCAN-ELISA) / Binding of serum 1a to looped/cyclic peptides of protein N of SARS-CoV Urbani / Binding of serum 1b to looped/cyclic peptides of protein N of SARS-CoV Urbani / Binding of serum 2 to looped/cyclic peptides of protein N of SARS-CoV Urbani / Binding of serum 6 to looped/cyclic peptides of protein N of SARS-CoV Urbani / Binding of serum 37 to looped/cyclic peptides of protein N of SARS-CoV Urbani / Binding of serum 62 to looped/cyclic peptides of protein N of SARS-CoV Urbani / Binding of serum London to looped/cyclic peptides of protein N of SARS-CoV Urbani / Binding of serum SARS-green to looped/cyclic peptides of protein N of SARS-CoV Urbani: unit not given here.

Assay [3] concerns control sera (pooled serum of ten healthy LUMC hospital workers; commercial negative donor pooled serum from the Dutch bloodbank). In kind it is binding, human. The arrangement: Binding of Control serum LUMC to linear peptides / Binding of Control serum Blood-bank to linear peptides / Binding of Control serum LUMC to looped peptides / Binding of Control Serum Blood-Bank to Looped peptides / Binding of Control serum LUMC to linear peptides of the protein M of SARS-CoV Urbani / Binding of Control serum Blood-bank to linear peptides of the protein M of SARS-CoV Urbani / Binding of Control serum LUMC to looped peptides of the protein M of SARS-CoV Urbani / Binding of Control Serum Blood-Bank to Looped peptides of the protein M of SARS-CoV Urbani: unit not given here.

On to VKDYVVVHGYFTEVY, for which, in assay [1], the “Binding of a rabbit serum to linear peptides” value turned out to be 0.1 and the “Binding of a rabbit serum to looped peptides” value turned out to be 0.6. In assay [2], the “Binding of serum 1a to linear peptides of protein X1 of SARS-CoV Urbani” value amounted to 0.7, the “Binding of serum 1a to looped/cyclic peptides of protein X1 of SARS-CoV Urbani” value amounted to 0.5, the “Binding of serum 1b to linear peptides of protein X1 of SARS-CoV Urbani” value turned out to be 0.6 and the “Binding of serum 1b to looped/cyclic peptides of protein X1 of SARS-CoV Urbani” value worked out at 0.4. Also, in assay [2], the “Binding of serum 2 to linear peptides of protein X1 of SARS-CoV Urbani” value is recorded as 0.4, the “Binding of serum 2 to looped/cyclic peptides of protein X1 of SARS-CoV Urbani” value was 0.4, the “Binding of serum 6 to linear peptides of protein X1 of SARS-CoV Urbani” value is 0.4 and the “Binding of serum 6 to looped/cyclic peptides of protein X1 of SARS-CoV Urbani” value is listed as 0.2. Besides, in assay [2], the “Binding of serum 37 to linear peptides of protein X1 of SARS-CoV Urbani” value is 0.6, the “Binding of serum 37 to looped/cyclic peptides of protein X1 of SARS-CoV Urbani” value was 0.6, the “Binding of serum 62 to linear peptides of protein X1 of SARS-CoV Urbani” value is recorded as 0.5 and the “Binding of serum 62 to looped/cyclic peptides of protein X1 of SARS-CoV Urbani” value was 0.5. Also, in assay [2], the “Binding of serum London to linear peptides of protein X1 of SARS-CoV Urbani” value was 0.2, the “Binding of serum London to looped/cyclic peptides of protein X1 of SARS-CoV Urbani” value is recorded as 0.2, the “Binding of serum SARS-green to linear peptides of protein X1 of SARS-CoV Urbani” value is 0.2 and the “Binding of serum SARS-green to looped/cyclic peptides of protein X1 of SARS-CoV Urbani” value stood at 0.2. Also, in assay [2], the “Binding of serum SARS-yellow to linear peptides of protein X1 of SARS-CoV Urbani” value amounted to 0.4 and the “Binding of serum SARS-yellow to looped/cyclic peptides of protein X1 of SARS-CoV Urbani” value was 0.5. In assay [3], the “Binding of Control Serum Blood-Bank to Looped peptides” value was determined as 0.5, the “Binding of Control serum Blood-bank to linear peptides” value was found to be 0.5, the “Binding of Control serum LUMC to linear peptides” value is reported as 0.5 and the “Binding of Control serum LUMC to looped peptides” value is 0.6.

Turning to VLAAVYRINWVTGGI, in assay [1], the “Rabbit serum linear peptides” value came to 0.3 and the “Rabbit serum looped peptides” value is listed as 0.0. Further, in assay [2], the “Binding of serum 1a to linear peptides of protein M of SARS-CoV Urbani” value is 0.8, the “Binding of serum 1a to looped/cyclic peptides of protein M of SARS-CoV Urbani” value was determined as 0.6, the “Binding of serum 1b to linear peptides of protein M of SARS-CoV Urbani” value was determined as 0.7 and the “Binding of serum 1b to looped/cyclic peptides of protein M of SARS-CoV Urbani” value amounted to 0.5. For the same sequence, in assay [2], the “Binding of serum 2 to linear peptides of protein M of SARS-CoV Urbani” value came out at 0.7, the “Binding of serum 2 to looped/cyclic peptides of protein M of SARS-CoV Urbani” value turned out to be 0.6, the “Binding of serum 6 to linear peptides of protein M of SARS-CoV Urbani” value was 0.5 and the “Binding of serum 6 to looped/cyclic peptides of protein M of SARS-CoV Urbani” value stood at 0.7. In addition, in assay [2], the “Binding of serum 37 to linear peptides of protein M of SARS-CoV Urbani” value is 0.6, the “Binding of serum 37 to looped/cyclic peptides of protein M of SARS-CoV Urbani” value is 0.6, the “Binding of serum 62 to linear peptides of protein M of SARS-CoV Urbani” value was found to be 0.6 and the “Binding of serum 62 to looped/cyclic peptides of protein M of SARS-CoV Urbani” value worked out at 0.5. Besides, in assay [2], the “Binding of serum London to linear peptides of protein M of SARS-CoV Urbani” value was 0.4, the “Binding of serum London to looped/cyclic peptides of protein M of SARS-CoV Urbani” value worked out at 0.2, the “Binding of serum SARS-green to linear peptides of protein M of SARS-CoV Urbani” value is recorded as 0.6 and the “Binding of serum SARS-green to looped/cyclic peptides of protein M of SARS-CoV Urbani” value is on record as 0.2. Also, in assay [2], the “Binding of serum SARS-yellow to linear peptides of protein M of SARS-CoV Urbani” value stood at 0.2 and the “Binding of serum SARS-yellow to looped/cyclic peptides of protein M of SARS-CoV Urbani” value is on record as 0.6. Moreover, in assay [3], the “Binding of Control Serum Blood-Bank to Looped peptides of the protein M of SARS-CoV Urbani” value was 0.8, the “Binding of Control serum Blood-bank to linear peptides of the protein M of SARS-CoV Urbani” value came out at 0.9, the “Binding of Control serum LUMC to linear peptides of the protein M of SARS-CoV Urbani” value turned out to be 1.0 and the “Binding of Control serum LUMC to looped peptides of the protein M of SARS-CoV Urbani” value is 0.8.

As to VLKMLHSSSLTSLLK, in assay [1], the “Binding of a rabbit serum to linear peptides” value came to 0.2 and the “Binding of a rabbit serum to looped peptides” value was determined as 0.3. Further, in assay [2], the “Binding of serum 1a to linear peptides of protein X2” value worked out at 0.6, the “Binding of serum 1a to looped/cyclic peptides of protein X2 of SARS-CoV Urbani” value is 0.4, the “Binding of serum 1b to linear peptides of protein X2” value stood at 0.5 and the “Binding of serum 1b to looped/cyclic peptides of protein X2 of SARS-CoV Urbani” value is reported as 0.2. In addition, in assay [2], the “Binding of serum 2 to linear peptides of protein X2” value was found to be 0.5, the “Binding of serum 2 to looped/cyclic peptides of protein X2 of SARS-CoV Urbani” value worked out at 0.1, the “Binding of serum 6 to linear peptides of protein X2” value was 0.5 and the “Binding of serum 6 to looped/cyclic peptides of protein X2 of SARS-CoV Urbani” value was found to be 0.1. In assay [2], the “Binding of serum 37 to linear peptides of protein X2” value turned out to be 0.5, the “Binding of serum 37 to looped/cyclic peptides of protein X2 of SARS-CoV Urbani” value is 0.2, the “Binding of serum 62 to linear peptides of protein X2” value worked out at 0.6 and the “Binding of serum 62 to looped/cyclic peptides of protein X2 of SARS-CoV Urbani” value was 0.4. In assay [2], the “Binding of serum London to linear peptides of protein X2” value is listed as 0.4, the “Binding of serum London to looped/cyclic peptides of protein X2 of SARS-CoV Urbani” value came out at 0.1, the “Binding of serum SARS-green to linear peptides of protein X2” value stood at 0.5 and the “Binding of serum SARS-green to looped/cyclic peptides of protein X2 of SARS-CoV Urbani” value came out at 0.2. In addition, in assay [2], the “Binding of serum SARS-yellow to linear peptides of protein X2” value is on record as 0.5 and the “Binding of serum SARS-yellow to looped/cyclic peptides of protein X2 of SARS-CoV Urbani” value came to 0.2. In addition, in assay [3], the “Binding of Control Serum Blood-Bank to Looped peptides” value worked out at 0.5, the “Binding of Control serum Blood-bank to linear peptides” value was 0.7, the “Binding of Control serum LUMC to linear peptides” value was 0.4 and the “Binding of Control serum LUMC to looped peptides” value is 0.3.

VRYNTRGNTYSTAWL: in assay [1], the “Rabbit serum linear peptides” value came to 0.7 and the “Rabbit serum looped peptides” value is listed as 1.2. Moreover, in assay [2], the “Binding of serum 1a to linear peptides of protein X5 of SARS-CoV Urbani” value was 0.7, the “Binding of serum 1a to looped/cyclic peptides of protein X5 of SARS-CoV Urbani” value was determined as 0.5, the “Binding of serum 1b to linear peptides of protein X5 of SARS-CoV Urbani” value was determined as 0.4 and the “Binding of serum 1b to looped/cyclic peptides of protein X5 of SARS-CoV Urbani” value is recorded as 0.3. Moreover, in assay [2], the “Binding of serum 2 to linear peptides of protein X5 of SARS-CoV Urbani” value amounted to 0.4, the “Binding of serum 2 to looped/cyclic peptides of protein X5 of SARS-CoV Urbani” value was determined as 0.4, the “Binding of serum 6 to linear peptides of protein X5 of SARS-CoV Urbani” value amounted to 0.7 and the “Binding of serum 6 to looped/cyclic peptides of protein X5 of SARS-CoV Urbani” value came to 0.3. Moreover, in assay [2], the “Binding of serum 37 to linear peptides of protein X5 of SARS-CoV Urbani” value is given as 0.6, the “Binding of serum 37 to looped/cyclic peptides of protein X5 of SARS-CoV Urbani” value is on record as 0.6, the “Binding of serum 62 to linear peptides of protein X5 of SARS-CoV Urbani” value is listed as 0.7 and the “Binding of serum 62 to looped/cyclic peptides of protein X5 of SARS-CoV Urbani” value turned out to be 0.4. Moreover, in assay [2], the “Binding of serum London to linear peptides of protein X5 of SARS-CoV Urbani” value is 0.7, the “Binding of serum London to looped/cyclic peptides of protein X5 of SARS-CoV Urbani” value came to 0.2, the “Binding of serum SARS-green to linear peptides of protein X5 of SARS-CoV Urbani” value was 0.4 and the “Binding of serum SARS-green to looped/cyclic peptides of protein X5 of SARS-CoV Urbani” value was 0.6. Further, in assay [2], the “Binding of serum SARS-yellow to linear peptides of protein X5 of SARS-CoV Urbani” value turned out to be 0.4 and the “Binding of serum SARS-yellow to looped/cyclic peptides of protein X5 of SARS-CoV Urbani” value is given as 0.6. For the same sequence, in assay [3], the “Binding of Control Serum Blood-Bank to Looped peptides” value worked out at 0.3, the “Binding of Control serum Blood-bank to linear peptides” value came out at 0.9, the “Binding of Control serum LUMC to linear peptides” value was determined as 0.5 and the “Binding of Control serum LUMC to looped peptides” value amounted to 0.5.
